Reference: US20170333393A1, “INJECTABLE ANTIOXIDANT FORMULATION FOR INTRAVENOUS USE OF SODIUM ASCORBATE IN HIGH DOSAGE, N-ACETYL CYSTEINE, AND DEFEROXAMINE; METHOD OF ADMINISTRATION AND USE FOR PREVENTING INJURY DUE TO REPERFUSION; AND KIT” (UNIVERSIDAD DE CHILE, priority 2014, published 2017)

Legend:
isolated rat hearts = assay: Langendorff isolated heart model, ischemia/reperfusion; recovery of contractibility; design: species or system Sprague-Dawley rat; conditions: 30 min regional ischemia, 60 min reperfusion; N-acetyl cysteine 36.8 mmol/L, deferoxamine 3.9 mmol/L; N=3 rats per group
Text: Laboratory trials in murine model, by means of the use of the Langendorff isolated heart model, allowed to preliminarily establish the contribution of the secondary components of the solution in isolated form, in conjunction and in tri-association with sodium ascorbate on the attenuation of lethal reperfusion by means of the evaluation of the percentage of recovery of contractibility, subsequent to the reestablishment of the blood flow, […]
Sprague-Dawley adult male rats (250 to 300 g) were anesthetized with pentobarbital (80 mg/kg IP). Heparine (100 U/kg IV) was administered and the hearts were rapidly extracted and perfused with Krebs-Henseleit solution oxygenated in a Langendorff perfusion system at 37° C. […] The ventricular pressure was measured with a latex balloon inserted, in the left ventricular and connected to a pressure transductor. […]
Evaluation of the injury: The capacity was measured of both components isolated, in conjunction and in tri-association with sodium ascorbate in high dosage, in order to recover the cardiac contractibility, loss associated to the injury due to reperfusion.
For the analysis of the results parametric statistic of the continuous variables was used, expressing the position in terms of arithmetic mean and dispersion based on the standard deviation. The differences between multiple groups were analysed by means of ANOVA with Bonferroni test as Post-Hoc. […]

[1] = system: patients diagnosed with acute myocardium infarction with indication of primary angioplasty; assay: PREVEC Phase II randomized, double blind, placebo controlled clinical trial; left ventricular ejection fraction by cardiac magnetic resonance; format: in vivo, human
Experimental: In a group of 50 patients subjected to a primary angioplasty due to acute infarction diagnosis, treated only with massive dosage of sodium ascorbate (equivalent dosage to the one used in the three component formulation), a recovery was observed that has never before been reported of the cardiac function in a medium term, only referable to an attenuation of the late effects of the injury due to reperfusion. The evaluation was carried out by means of cardiac magnetic resonance, technique considered the present gold standard for this kind of studies.
A randomized, double blind, placebo controlled clinical trial was applied to patients diagnosed with acute myocardium infarction with indication of primary angioplasty, previously enrolled.
As inclusion criteria, was defined: Individuals of any sex older than 18 years of age; Latency of admission of up to 12 hours since presenting symptoms; First myocardium infarction; Killip 1 and 2; Capacity and willingness to sign consent form.
As exclusion criteria was established: Renal or hepathic insufficiency history; Cardiac failure history (NYHA III, IV); Cardiogenic shock; Comorbility that determines a life expectancy<6 months; Participation in another investigation; Pregnancy; Glucose 6—Phosphate Dehydrogenase deficiency.
Patients were administered an oral dose of vitamin E (800 IU), followed by a sodium ascorbate infusion (320 mmol/L). The placebo group received an inert infusion of sodium chloride solution of the same osmolarity as the sodium ascorbate infusion. Serial blood samples were taken to analyse biomarkers related to myocardium, injury, oxidative stress and inflammation in order to evaluated efficiency on injury due to early reperfusion. […]
The statistical analysis of the preliminary results, was carried out using non parametric statistics, using the median as position measurement, interquartile range as dispersion measurement and the Mann-Whitney U test to determine the statistical significance. Differences between the multiple groups was analysed by means of a Kruskal-Wallis test. […]

Structure (SMILES) | improvement of recovery of contractibility regarding the control group (Placebo) (isolated rat hearts) | early cardiac function (left ventricular ejection fraction), treated versus placebo ([1]; day 6 after primary angioplasty, sodium ascorbate infusion 320 mmol/L after oral vitamin E 800 IU) | change in left ventricular ejection (difference between day 84 and day 6), treated versus placebo ([1]; difference of values 84 and six days after angioplasty, p<0.05) | left ventricular ejection fraction, higher in treated patients versus placebo ([1]; three months (day 84) after primary angioplasty, sodium ascorbate infusion 320 mmol/L after oral vitamin E 800 IU, p<0.05)
CC(=O)N[C@@H](CS)C(=O)O [N-acetyl cysteine] | 189% |  |  | 
CC(=O)N(O)CCCCCNC(=O)CCC(=O)N(O)CCCCCNC(=O)CCC(=O)N(O)CCCCCN [deferoxamine] | 113% |  |  | 
O=C1O[C@H]([C@@H](O)CO)C([O-])=C1O.[Na+] [sodium ascorbate] |  | did not show any difference | significantly higher | 33%
